# Reference: patent US10000456B2, “Polycyclic compounds as lysophosphatidic acid receptor antagonists” (AMIRA PHARMACEUTICALS, INC., priority 2009, dated 2018)
# Test system: A2058 human melanoma cells
# Assay: LPA1 chemotaxis assay
# Assay type: cell-based
# Settings: LPA 100 nM, read-out: IC50, inhibition of LPA-driven chemotaxis
# Procedure: Chemotaxis of the A2058 human melanoma cells was measured using the Neuroprobe CHEMOTX® System plates ([…], 5.7 mm diameter sites). The filter sites were coated with 0.001% fibronectin (Sigma) in 20 mM Hepes, pH 7.4 and allowed to dry. A2058 cells were serum-starved for 24 hours, then harvested with Cell Stripper and resuspended in DMEM containing 0.1% fatty-acid-free bovine serum albumin (BSA) to a concentration of 1×10^6/ml. Cells were mixed with an equal volume of test compound (2×) in DMEM containing 0.1% fatty-acid-free BSA and incubated at 37° C. for 15 minutes. LPA (100 nM in DMEM containing 0.1% fatty-acid-free BSA) or vehicle was added to each well of the lower chamber and 50 μl of the cell suspension/test compound mix was applied to the upper portion of the CHEMOTX® plate. Plates were incubated at 37° C. for three hours and then the cells removed from the upper portion by rinsing with PBS and scraping. The filter was dried then stained with HEMA 3® Staining System (Fisher Scientific). The absorbance of the filter was read at 590 nm and IC50s were determined using SYMYX® Assay Explorer.
row,IC50,Compound
1,< 0.1 µM,"Cc1noc(-c2ccc(-c3ccc(C4(C(=O)O)CC4)cc3)cc2)c1Nc1cccc(Cc2ccc(F)cc2)n1 [Compound 47, 1-(4′-{4-[6-(4-Fluoro-benzyl)-pyridin-2-ylamino]-3-methyl-isoxazol-5-yl}-biphenyl-4-yl)-cyclopropanecarboxylic acid]"
2,< 0.1 µM,"Cc1noc(-c2ccc(-c3ccc(C4(C(=O)O)CC4)cc3)cc2)c1Nc1cccc(-c2cccc(C(F)(F)F)c2)n1 [Compound 41, 1-(4′-{3-Methyl-4-[6-(3-trifluoromethyl-phenyl)-pyridin-2-ylamino]-isoxazol-5-yl}-biphenyl-4-yl)-cyclopropanecarboxylic acid]"
3,< 0.1 µM,"Cc1noc(-c2ccc(-c3ccc(C4(C(=O)O)CC4)cc3)cc2)c1Nc1cccc(Cc2cccc(F)c2)n1 [Compound 46, 1-(4′-{4-[6-(3-Fluoro-benzyl)-pyridin-2-ylamino]-3-methyl-isoxazol-5-yl}-biphenyl-4-yl)-cyclopropanecarboxylic acid]"
4,< 0.1 µM,"Cc1noc(-c2ccc(-c3ccc(C4(C(=O)O)CC4)cc3)cc2)c1Nc1nnc(Cc2ccccc2)o1 [Compound 44, 1-{4′-[4-(5-Benzyl-[1,3,4]oxadiazol-2-ylamino)-3-methyl-isoxazol-5-yl]-biphenyl-4-yl}-cyclopropanecarboxylic acid]"
5,< 0.1 µM,"Cc1noc(-c2ccc(-c3ccc(C4(C(=O)O)CC4)cc3)cc2)c1Nc1cccc(-c2ccccc2Cl)n1 [Compound 60, 1-(4′-{4-[6-(2-Chloro-phenyl)-pyridin-2-ylamino]-3-methyl-isoxazol-5-yl}-biphenyl-4-yl)-cyclopropanecarboxylic acid]"
6,< 0.1 µM,"Cc1noc(-c2ccc(-c3ccc(C4(C(=O)O)CC4)cc3)cc2)c1Nc1cccc(-c2ccccc2)n1 [Compound 33, 1-{4′-[3-Methyl-4-(6-phenyl-pyridin-2-ylamino)-isoxazol-5-yl]-biphenyl-4-yl}-cyclopropanecarboxylic acid]"
7,< 0.1 µM,"COc1ccc(F)cc1-c1cccc(Nc2c(C)noc2-c2ccc(-c3ccc(C4(C(=O)O)CC4)cc3)cc2)n1 [Compound 75, 1-(4′-{4-[6-(5-Fluoro-2-methoxy-phenyl)-pyridin-2-ylamino]-3-methyl-isoxazol-5-yl}-biphenyl-4-yl)-cyclopropanecarboxylic acid]"
8,< 0.1 µM,"Cc1noc(-c2ccc(-c3ccc(C4(C(=O)O)CC4)cc3)cc2)c1Nc1cncc(-c2cccc(C(F)(F)F)c2)c1 [Compound 68, 1-(4′-{3-Methyl-4-[5-(3-trifluoromethyl-phenyl)-pyridin-3-ylamino]-isoxazol-5-yl}-biphenyl-4-yl)-cyclopropanecarboxylic acid]"
9,< 0.1 µM,"Cc1noc(-c2ccc(-c3ccc(C4(C(=O)O)CC4)cc3)cc2)c1Nc1cccc(-c2cccc(F)c2C)n1 [Compound 83, 1-(4′-{4-[6-(3-Fluoro-2-methyl-phenyl)-pyridin-2-ylamino]-3-methyl-isoxazol-5-yl}-biphenyl-4-yl)-cyclopropanecarboxylic acid]"
10,< 0.1 µM,"Cc1noc(-c2ccc(-c3ccc(C4(C(=O)O)CC4)cc3)cc2)c1Nc1cccc(-c2cc(F)ccc2Cl)n1 [Compound 79, 1-(4′-{4-[6-(2-Chloro-5-fluoro-phenyl)-pyridin-2-ylamino]-3-methyl-isoxazol-5-yl}-biphenyl-4-yl)-cyclopropanecarboxylic acid]"
11,< 0.1 µM,"Cc1noc(-c2ccc(-c3ccc(C4(C(=O)O)CC4)cc3)cc2)c1Nc1cccc(Cc2ccccc2)c1 [Compound 49, 1-{4′-[4-(3-Benzyl-phenylamino)-3-methyl-isoxazol-5-yl]-biphenyl-4-yl}-cyclopropanecarboxylic acid]"
12,< 0.1 µM,"Cc1noc(-c2ccc(-c3ccc(C4(C(=O)O)CC4)cc3)cc2)c1Nc1cccc(-c2cccc(F)c2)n1 [Compound 52, 1-(4′-{4-[6-(3-Fluoro-phenyl)-pyridin-2-ylamino]-3-methyl-isoxazol-5-yl}-biphenyl-4-yl)-cyclopropanecarboxylic acid]"
13,< 0.1 µM,"Cc1noc(-c2ccc(-c3ccc(C4(C(=O)O)CC4)cc3)cc2)c1C(O)c1cncc(Cc2ccccc2)c1 (stereo not shown) [Compound 27, 1-(4′-{4-[(5-Benzyl-pyridin-3-yl)-hydroxy-methyl]-3-methyl-isoxazol-5-yl}-biphenyl-4-yl)-cyclopropanecarboxylic acid]"
14,< 0.1 µM,"Cc1noc(-c2ccc(-c3ccc(C4(C(=O)O)CC4)cc3)cc2)c1C(O)c1cccc(Cc2ccccc2)c1 (stereo not shown) [Compound 26, 1-(4′-{4-[(3-Benzyl-phenyl)-hydroxy-methyl]-3-methyl-isoxazol-5-yl}-biphenyl-4-yl)-cyclopropanecarboxylic acid]"
15,< 0.1 µM,"Cc1noc(-c2ccc(-c3ccc(C4(C(=O)O)CC4)cc3)cc2)c1Nc1cncc(-c2cccc(F)c2Cl)c1 [Compound 82, 1-(4′-{4-[5-(2-Chloro-3-fluoro-phenyl)-pyridin-3-ylamino]-3-methyl-isoxazol-5-yl}-biphenyl-4-yl)-cyclopropanecarboxylic acid]"
16,< 0.1 µM,"Cc1noc(-c2ccc(-c3ccc(C4(C(=O)O)CC4)cc3)cc2)c1Nc1cccc(-c2ccccc2)c1 [Compound 39, 1-{4′-[4-(Biphenyl-3-ylamino)-3-methyl-isoxazol-5-yl]-biphenyl-4-yl}-cyclopropanecarboxylic acid]"
17,< 0.1 µM,"Cc1noc(-c2ccc(-c3ccc(C4(C(=O)O)CC4)cc3)cc2)c1Nc1nccc(-c2ccccc2)n1 [Compound 66, 1-{4′-[3-Methyl-4-(4-phenyl-pyrimidin-2-ylamino)-isoxazol-5-yl]-biphenyl-4-yl}-cyclopropanecarboxylic acid]"
18,< 0.1 µM,"Cc1noc(-c2ccc(-c3ccc(C4(C(=O)NS(C)(=O)=O)CC4)cc3)cc2)c1Nc1cccc(Cc2ccccc2)n1 [Compound 95, N-(1-{4′-[4-(6-Benzyl-pyridin-2-ylamino)-3-methyl-isoxazol-5-yl]-biphenyl-4-yl}-cyclopropanecarbonyl)-methanesulfonamide]"
19,< 0.1 µM,"Cc1noc(-c2ccc(-c3ccc(C4(C(=O)NS(C)(=O)=O)CC4)cc3)cc2)c1C(O)c1cn(Cc2ccccc2)nn1 (single isomer, unassigned) [Compound 91, N-[1-(4′-{4-[(1-Benzyl-1H-[1,2,3]triazol-4-yl)-hydroxy-methyl]-3-methyl-isoxazol-5-yl}-biphenyl-4-yl)-cyclopropanecarbonyl]-methanesulfonamide]"
20,< 0.1 µM,"Cc1noc(-c2ccc(-c3ccc(C4(C(=O)O)CC4)cc3)cc2)c1Nc1cncc(-c2cccc(F)c2)c1 [Compound 59, 1-(4′-{4-[5-(3-Fluoro-phenyl)-pyridin-3-ylamino]-3-methyl-isoxazol-5-yl}-biphenyl-4-yl)-cyclopropanecarboxylic acid]"
21,< 0.1 µM,"Cc1noc(-c2ccc(-c3ccc(C4(C(=O)O)CC4)cc3)cc2)c1Nc1cccc(-c2cccc(F)c2Cl)n1 [Compound 81, 1-(4′-{4-[6-(2-Chloro-3-fluoro-phenyl)-pyridin-2-ylamino]-3-methyl-isoxazol-5-yl}-biphenyl-4-yl)-cyclopropanecarboxylic acid]"
22,< 0.1 µM,"Cc1noc(-c2ccc(-c3ccc(C4(C(=O)O)CC4)cc3)cc2)c1C(O)c1cn(C(C)c2ccccc2)nn1 (stereo not shown) [Compound 23, 1-[4′-(4-{Hydroxy-[1-(1-phenyl-ethyl)-1H-[1,2,3]triazol-4-yl]-methyl}-3-methyl-isoxazol-5-yl)-biphenyl-4-yl]-cyclopropanecarboxylic acid]"
